For the test, the target named is T1, Human BCL-XL protein (N-terminal HiBiT tagged BCL-XL in HT1080 cells) (Homo sapiens, UniProt Q07817).
T1 construct: expressed in transfected cells; host or cells: HT-1080 (ATCC CCL-121), stably transduced with lentivirus pLV-UBC-N-HiBiT-BCL-XL-PGK-puro and selected with puromycin
Kind of test: HiBiT based degradation assay. The test is classed as cell-based. The settings on record: HT1080 cells expressing HiBiT-BCL-XL, 24 h; for Ymin (24 h): BCL-XL degradation normalized with DMSO control; for DC50: BCL-XL degradation, read-out: EC50 (24 h). A digest of the protocol: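 This HiBiT degradation assay measured loss of BCL-XL in HT1080 cells that stably express an N-terminal HiBiT-BCL-XL fusion delivered by lentivirus. Cells were added to compound-spotted 384-well plates, and luminescence was read on a PHERAstar FSX reader. Signal was expressed relative to DMSO controls, curves were fitted by four-parameter logistic regression, and for hook-shaped curves the Ymin point served as the bottom plateau when calculating EC50.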
Background: The HiBiT peptide binds its large partner to form an active luciferase.

Some results are limits rather than exact numbers.

T1 sequence (Q07817 whole entry): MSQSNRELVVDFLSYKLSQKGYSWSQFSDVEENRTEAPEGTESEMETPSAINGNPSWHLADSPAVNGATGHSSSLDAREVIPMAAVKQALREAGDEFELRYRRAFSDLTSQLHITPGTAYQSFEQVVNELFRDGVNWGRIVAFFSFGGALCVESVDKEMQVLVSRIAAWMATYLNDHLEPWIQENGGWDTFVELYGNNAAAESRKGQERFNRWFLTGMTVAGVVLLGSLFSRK

Turning to `Cc1c(O[C@H]2CC[C@H](CCCN3CCN(c4cccc5c(C6CCC(=O)NC6=O)nn(C)c45)C[C@@H]3C)CC2)cccc1-c1ccc(N2CCc3cccc(C(=O)Nc4nc5ccccc5s4)c3C2)nc1C(=O)O` (stereo partly drawn) [Compound 275b, 6-(8-(benzo[d]thiazol-2-ylcarbamoyl)-3,4-dihydroisoquinolin-2(1H)-yl)-3-(3-(((1R,4r)-4-(3-((2S)-4-(3-(2,6-dioxopiperidin-3-yl)-1-methyl-1H-indazol-7-yl)-2-methylpiperazin-1-yl)propyl)cyclohexyl)oxy)-2-methylphenyl)picolinic acid], the “Ymin (24 h)” value is “C (Ymin ≥ 70%)” and the DC50 is less than 100 nM.

Consider `Cc1c(OCCC2CC3(C2)CN(CC(=O)Nc2ccc4c(C5CCC(=O)NC5=O)nn(C)c4c2)C3)cccc1-c1ccc(N2CCc3cccc(C(=O)Nc4nc5ccccc5s4)c3C2)nc1C(=O)O` (stereo not drawn) [Compound 277, 6-(8-(benzo[d]thiazol-2-ylcarbamoyl)-3,4-dihydroisoquinolin-2(1H)-yl)-3-(3-(2-(2-(2-((3-(2,6-dioxopiperidin-3-yl)-1-methyl-1H-indazol-6-yl)amino)-2-oxoethyl)-2-azaspiro[3.3]heptan-6-yl)ethoxy)-2-methylphenyl)picolinic acid], for which the “Ymin (24 h)” value is “A (Ymin < 50%)” and the DC50 was less than 100 nM.

In the case of `Cc1c(O[C@H]2CC[C@H](CCCN3CCN(c4ccc5c(C6CCC(=O)NC6=O)nn(C)c5c4)[C@H](C)C3)CC2)cccc1-c1ccc(N2CCc3cccc(C(=O)Nc4nc5ccccc5s4)c3C2)nc1C(=O)O` (stereo partly drawn) [Compound 278a, 6-(8-(benzo[d]thiazol-2-ylcarbamoyl)-3,4-dihydroisoquinolin-2(1H)-yl)-3-(3-(((1S,4r)-4-(3-((3R)-4-(3-(2,6-dioxopiperidin-3-yl)-1-methyl-1H-indazol-6-yl)-3-methylpiperazin-1-yl)propyl)cyclohexyl)oxy)-2-methylphenyl)picolinic acid], the “Ymin (24 h)” value is “A (Ymin < 50%)” and the DC50 was less than 100 nM.

For `Cc1c(O[C@H]2CC[C@H](CCCN3CCN(c4ccc5c(C6CCC(=O)NC6=O)nn(C)c5c4)[C@@H](C)C3)CC2)cccc1-c1ccc(N2CCc3cccc(C(=O)Nc4nc5ccccc5s4)c3C2)nc1C(=O)O` (stereo partly drawn) [Compound 278b, 6-(8-(benzo[d]thiazol-2-ylcarbamoyl)-3,4-dihydroisoquinolin-2(1H)-yl)-3-(3-(((1R,4r)-4-(3-((3S)-4-(3-(2,6-dioxopiperidin-3-yl)-1-methyl-1H-indazol-6-yl)-3-methylpiperazin-1-yl)propyl)cyclohexyl)oxy)-2-methylphenyl)picolinic acid], the “Ymin (24 h)” value is on record as “A (Ymin < 50%)” and the DC50 is less than 100 nM.

`Cc1c(OCCCC2CCN(CC3CCN(c4cccc5c(C6CCC(=O)NC6=O)nn(C)c45)CC3)CC2)cccc1-c1ccc(N2CCc3cccc(C(=O)Nc4nc5ccccc5s4)c3C2)nc1C(=O)O` (stereo not drawn) [Compound 279, 6-[8-(1,3-benzothiazol-2-ylcarbamoyl)-3,4-dihydro-1H-isoquinolin-2-yl]-3-[3-[3-[1-[[1-[3-(2,6-dioxo-3-piperidyl)-1-methyl-indazol-7-yl]-4-piperidyl]methyl]-4-piperidyl]propoxy]-2-methyl-phenyl]pyridine-2-carboxylic acid]: the “Ymin (24 h)” value is “A (Ymin < 50%)” and the DC50 was less than 100 nM.

For `Cc1c(OCCCc2ccc(CC(=O)Nc3ccc4c(C5CCC(=O)NC5=O)nn(C)c4c3)nc2)cccc1-c1ccc(N2CCc3cccc(C(=O)Nc4nc5ccccc5s4)c3C2)nc1C(=O)O` (stereo not drawn) [Compound 280, 6-[8-(1,3-benzothiazol-2-ylcarbamoyl)-3,4-dihydro-1H-isoquinolin-2-yl]-3-[3-[3-[6-[2-[[3-(2,6-dioxo-3-piperidyl)-1-methyl-indazol-6-yl]amino]-2-oxo-ethyl]-3-pyridyl]propoxy]-2-methyl-phenyl]pyridine-2-carboxylic acid], the “Ymin (24 h)” value is given as “B (50% ≤ Ymin < 70%)” and the DC50 was less than 100 nM.

Regarding `Cc1c(OCCCCC2CCN(CC3CCN(c4cccc5c(C6CCC(=O)NC6=O)nn(C)c45)CC3)CC2)cccc1-c1ccc(N2CCc3cccc(C(=O)Nc4nc5ccccc5s4)c3C2)nc1C(=O)O` (stereo not drawn) [Compound 285, 6-[8-(1,3-benzothiazol-2-ylcarbamoyl)-3,4-dihydro-1H-isoquinolin-2-yl]-3-[3-[4-[1-[[1-[3-(2,6-dioxo-3-piperidyl)-1-methyl-indazol-7-yl]-4-piperidyl]methyl]-4-piperidyl]butoxy]-2-methyl-phenyl]pyridine-2-carboxylic acid], the “Ymin (24 h)” value is “A (Ymin < 50%)” and the DC50 was less than 100 nM.

For `Cc1c(OCCCC2CC3(C2)CN(CC(=O)Nc2ccc4c(C5CCC(=O)NC5=O)nn(C)c4c2)C3)cccc1-c1ccc(N2CCc3cccc(C(=O)Nc4nc5ccccc5s4)c3C2)nc1C(=O)O` (stereo not drawn) [Compound 286, 6-[8-(1,3-benzothiazol-2-ylcarbamoyl)-3,4-dihydro-1H-isoquinolin-2-yl]-3-[3-[3-[2-[2-[[3-(2,6-dioxo-3-piperidyl)-1-methyl-indazol-6-yl]amino]-2-oxo-ethyl]-2-azaspiro[3.3]heptan-6-yl]propoxy]-2-methyl-phenyl]pyridine-2-carboxylic acid], the “Ymin (24 h)” value was “A (Ymin < 50%)” and the DC50 is less than 100 nM.

Turning to `Cc1c(OCCC2CCN(CCCC3CCN(c4ccc5c(C6CCC(=O)NC6=O)nn(C)c5c4)CC3)CC2)cccc1-c1ccc(N2CCc3cccc(C(=O)Nc4nc5ccccc5s4)c3C2)nc1C(=O)O` (stereo not drawn) [Compound 287, 6-[8-(1,3-benzothiazol-2-ylcarbamoyl)-3,4-dihydro-1H-isoquinolin-2-yl]-3-[3-[2-[1-[3-[1-[3-(2,6-dioxo-3-piperidyl)-1-methyl-indazol-6-yl]-4-piperidyl]propyl]-4-piperidyl]ethoxy]-2-methyl-phenyl]pyridine-2-carboxylic acid], the “Ymin (24 h)” value is on record as “A (Ymin < 50%)” and the DC50 was less than 100 nM.

As for `Cc1c(OCCC2CCN(CCCC3CCN(c4cccc5c(C6CCC(=O)NC6=O)nn(C)c45)CC3)CC2)cccc1-c1ccc(N2CCc3cccc(C(=O)Nc4nc5ccccc5s4)c3C2)nc1C(=O)O` (stereo not drawn) [Compound 288, 6-[8-(1,3-benzothiazol-2-ylcarbamoyl)-3,4-dihydro-1H-isoquinolin-2-yl]-3-[3-[2-[1-[3-[1-[3-(2,6-dioxo-3-piperidyl)-1-methyl-indazol-7-yl]-4-piperidyl]propyl]-4-piperidyl]ethoxy]-2-methyl-phenyl]pyridine-2-carboxylic acid], the “Ymin (24 h)” value is recorded as “A (Ymin < 50%)” and the DC50 is less than 100 nM.

With `Cc1c(CCCOC2CCN(CC(=O)Nc3ccc4c(C5CCC(=O)NC5=O)nn(C)c4c3)CC2)cccc1-c1ccc(N2CCc3cccc(C(=O)Nc4nc5ccccc5s4)c3C2)nc1C(=O)O` (stereo not drawn) [Compound 290, 6-[8-(1,3-benzothiazol-2-ylcarbamoyl)-3,4-dihydro-1H-isoquinolin-2-yl]-3-[3-[3-[[1-[2-[[3-(2,6-dioxo-3-piperidyl)-1-methyl-indazol-6-yl]amino]-2-oxo-ethyl]-4-piperidyl]oxy]propyl]-2-methyl-phenyl]pyridine-2-carboxylic acid], the “Ymin (24 h)” value was “A (Ymin < 50%)” and the DC50 is less than 100 nM.

On to `Cc1cc(CCCOC2CCN(CC(=O)Nc3ccc4c(C5CCC(=O)NC5=O)nn(C)c4c3)CC2)ccc1-c1ccc(N2CCc3cccc(C(=O)Nc4nc5ccccc5s4)c3C2)nc1C(=O)O` (stereo not drawn) [Compound 291, 6-[8-(1,3-benzothiazol-2-ylcarbamoyl)-3,4-dihydro-1H-isoquinolin-2-yl]-3-[4-[3-[[1-[2-[[3-(2,6-dioxo-3-piperidyl)-1-methyl-indazol-6-yl]amino]-2-oxo-ethyl]-4-piperidyl]oxy]propyl]-2-methyl-phenyl]pyridine-2-carboxylic acid], for which the “Ymin (24 h)” value was “A (Ymin < 50%)” and the DC50 is less than 100 nM.

In the case of `Cc1c(CCCCC2CCN(CC(=O)Nc3ccc4c(C5CCC(=O)NC5=O)nn(C)c4c3)CC2)cccc1-c1ccc(N2CCc3cccc(C(=O)Nc4nc5ccccc5s4)c3C2)nc1C(=O)O` (stereo not drawn) [Compound 292, 6-[8-(1,3-benzothiazol-2-ylcarbamoyl)-3,4-dihydro-1H-isoquinolin-2-yl]-3-[3-[4-[1-[2-[[3-(2,6-dioxo-3-piperidyl)-1-methyl-indazol-6-yl]amino]-2-oxo-ethyl]-4-piperidyl]butyl]-2-methyl-phenyl]pyridine-2-carboxylic acid], the “Ymin (24 h)” value is recorded as “A (Ymin < 50%)” and the DC50 is less than 100 nM.

`Cc1c(O[C@H]2CC[C@H](CCCCN3CCN(c4ccc5c(C6CCC(=O)NC6=O)nn(C)c5c4F)CC3)CC2)cccc1-c1ccc(N2CCc3cccc(C(=O)Nc4nc5ccccc5s4)c3C2)nc1C(=O)O` (stereo partly drawn) [Compound 293a, 6-(8-(benzo[d]thiazol-2-ylcarbamoyl)-3,4-dihydroisoquinolin-2(1H)-yl)-3-(3-(((1s,4r)-4-(4-(4-(3-(2,6-dioxopiperidin-3-yl)-7-fluoro-1-methyl-1H-indazol-6-yl)piperazin-1-yl)butyl)cyclohexyl)oxy)-2-methylphenyl)picolinic acid]: the “Ymin (24 h)” value is listed as “A (Ymin < 50%)” and the DC50 is less than 100 nM.

In the case of `Cc1cc(CCCCC2CCN(CC(=O)Nc3ccc4c(C5CCC(=O)NC5=O)nn(C)c4c3)CC2)ccc1-c1ccc(N2CCc3cccc(C(=O)Nc4nc5ccccc5s4)c3C2)nc1C(=O)O` (stereo not drawn) [Compound 294], the “Ymin (24 h)” value is “A (Ymin < 50%)” and the DC50 is less than 100 nM.

The values above are taken from patent US20240238423A9, “TETRAHYDROISOQUINOLINE HETEROBIFUNCTIONAL BCL-XL DEGRADERS” (Treeline Biosciences, Inc., priority 2022, published 2024).
